Experimental data taken from PubChem BioAssay AID2060887 (Molecular Pharmacology Branch, DTP, NCI, 2025).
pIC50: −log10 of the molar value.

System: 782815-120-R-J1-PDC complex spheroid viability
Assay: Anticancer human tumor 782815-120-R-J1-PDC patient-derived colon adenocarcinoma cell line growth inhibition [RAS]
Conditions: for pIC50: curve of first compound; for viability, T/C: stronger effect = lower value
Summary of the method: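 Multi-cell-type spheroids: tumor cells plus HUVEC endothelial cells and mesenchymal stem cells. RAS-pathway inhibitors were combined with targeted agents, each dosed in half-log steps down from clinical Cmax, or from 10 microM when Cmax was unknown.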

[1] = second compound 0.000949 µM, first compound 0.0316 µM
[2] = second compound 0.000949 µM, first compound 0.1 µM
[3] = second compound 0.000949 µM, first compound 0.316 µM
[4] = second compound 0.000949 µM, first compound 1 µM
[5] = second compound 0.003 µM, first compound 0.0316 µM
[6] = second compound 0.003 µM, first compound 0.1 µM
[7] = second compound 0.003 µM, first compound 0.316 µM
[8] = second compound 0.003 µM, first compound 1 µM
[9] = second compound 0.00949 µM, first compound 0.0316 µM
[10] = second compound 0.00949 µM, first compound 0.1 µM
[11] = second compound 0.00949 µM, first compound 0.316 µM
[12] = second compound 0.00949 µM, first compound 1 µM
[13] = second compound 0.03 µM, first compound 0.0316 µM
[14] = second compound 0.03 µM, first compound 0.1 µM
[15] = second compound 0.03 µM, first compound 0.316 µM
[16] = second compound 0.03 µM, first compound 1 µM
[17] = second compound 0.0949 µM, first compound 0.0316 µM
[18] = second compound 0.0949 µM, first compound 0.1 µM
[19] = second compound 0.0949 µM, first compound 0.316 µM
[20] = second compound 0.0949 µM, first compound 1 µM
[21] = second compound 0.3 µM, first compound 0.0316 µM
[22] = second compound 0.3 µM, first compound 0.1 µM
[23] = second compound 0.3 µM, first compound 0.316 µM
[24] = second compound 0.3 µM, first compound 1 µM
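Note: spheroids exposed to compounds for 7 days before reading.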
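Throughout, for viability, T/C: 100% = DMSO vehicle control viability.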

## CC(=O)OC12COC1CC(O)C1(C)C(=O)C(O)C3=C(C)C(OC(=O)C(O)C(NC(=O)OC(C)(C)C)c4ccccc4)CC(O)(C(OC(=O)c4ccccc4)C21)C3(C)C (stereo unspecified) + CCn1c(-c2cc(N3CCN(C)CC3)cnc2C(C)OC)c2c3cc(ccc31)-c1csc(n1)CC(NC(=O)C1CC1C)C(=O)N1CCCC(N1)C(=O)OCC(C)(C)C2
Second compound 0.000949 µM
  pIC50: > 7.50
Second compound 0.003 µM
  pIC50: > 7.50
Second compound 0.00949 µM
  pIC50: > 7.50
Second compound 0.03 µM
  pIC50: > 7.50
Second compound 0.0949 µM
  pIC50: > 7.50
Second compound 0.3 µM
  pIC50: > 7.50
[1]
  viability, T/C: 26%
[2]
  viability, T/C: 27.8%
[3]
  viability, T/C: 23.1%
[4]
  viability, T/C: 28.1%
Second compound 0.000949 µM, first compound 3.16 µM
  viability, T/C: 27.1%
Second compound 0.000949 µM, first compound 10 µM
  viability, T/C: 32.5%
[5]
  viability, T/C: 25.8%
[6]
  viability, T/C: 24.6%
[7]
  viability, T/C: 23.2%
[8]
  viability, T/C: 22%
Second compound 0.003 µM, first compound 3.16 µM
  viability, T/C: 21.3%
Second compound 0.003 µM, first compound 10 µM
  viability, T/C: 25.7%
[9]
  viability, T/C: 19.1%
[10]
  viability, T/C: 16.4%
[11]
  viability, T/C: 15.1%
[12]
  viability, T/C: 16.4%
Second compound 0.00949 µM, first compound 3.16 µM
  viability, T/C: 19.1%
Second compound 0.00949 µM, first compound 10 µM
  viability, T/C: 16.1%
[13]
  viability, T/C: 12.5%
[14]
  viability, T/C: 13.5%
[15]
  viability, T/C: 13.3%
[16]
  viability, T/C: 13.3%
Second compound 0.03 µM, first compound 3.16 µM
  viability, T/C: 14.8%
Second compound 0.03 µM, first compound 10 µM
  viability, T/C: 13.3%
[17]
  viability, T/C: 12.6%
[18]
  viability, T/C: 12.4%
[19]
  viability, T/C: 10.3%
[20]
  viability, T/C: 12.2%
Second compound 0.0949 µM, first compound 3.16 µM
  viability, T/C: 11.3%
Second compound 0.0949 µM, first compound 10 µM
  viability, T/C: 11.3%
[21]
  viability, T/C: 13%
[22]
  viability, T/C: 12.6%
[23]
  viability, T/C: 9.92%
[24]
  viability, T/C: 9.28%
Second compound 0.3 µM, first compound 3.16 µM
  viability, T/C: 10.9%
Second compound 0.3 µM, first compound 10 µM
  viability, T/C: 13%

## CCc1c2c(nc3ccc(O)cc13)-c1cc3c(c(=O)n1C2)COC(=O)[C@]3(O)CC + CCn1c(-c2cc(N3CCN(C)CC3)cnc2C(C)OC)c2c3cc(ccc31)-c1csc(n1)CC(NC(=O)C1CC1C)C(=O)N1CCCC(N1)C(=O)OCC(C)(C)C2
Second compound 0.000949 µM
  pIC50: 8.62
Second compound 0.003 µM
  pIC50: 8.72
Second compound 0.00949 µM
  pIC50: > 9.02
Second compound 0.03 µM
  pIC50: > 9.02
Second compound 0.0949 µM
  pIC50: > 9.02
Second compound 0.3 µM
  pIC50: > 9.02
Second compound 0.000949 µM, first compound 0.000949 µM
  viability, T/C: 70.4%
Second compound 0.000949 µM, first compound 0.003 µM
  viability, T/C: 45.9%
Second compound 0.000949 µM, first compound 0.00949 µM
  viability, T/C: 19.8%
Second compound 0.000949 µM, first compound 0.03 µM
  viability, T/C: 10.8%
Second compound 0.000949 µM, first compound 0.0949 µM
  viability, T/C: 3.9%
Second compound 0.000949 µM, first compound 0.3 µM
  viability, T/C: 1.57%
Second compound 0.003 µM, first compound 0.000949 µM
  viability, T/C: 66.6%
Second compound 0.003 µM, first compound 0.003 µM
  viability, T/C: 38.8%
Second compound 0.003 µM, first compound 0.00949 µM
  viability, T/C: 23.4%
Second compound 0.003 µM, first compound 0.03 µM
  viability, T/C: 12.9%
Second compound 0.003 µM, first compound 0.0949 µM
  viability, T/C: 4.38%
Second compound 0.003 µM, first compound 0.3 µM
  viability, T/C: 1.89%
Second compound 0.00949 µM, first compound 0.000949 µM
  viability, T/C: 32.7%
Second compound 0.00949 µM, first compound 0.003 µM
  viability, T/C: 28.5%
Second compound 0.00949 µM, first compound 0.00949 µM
  viability, T/C: 15.4%
Second compound 0.00949 µM, first compound 0.03 µM
  viability, T/C: 12.7%
Second compound 0.00949 µM, first compound 0.0949 µM
  viability, T/C: 7.05%
Second compound 0.00949 µM, first compound 0.3 µM
  viability, T/C: 1.84%
Second compound 0.03 µM, first compound 0.000949 µM
  viability, T/C: 19.6%
Second compound 0.03 µM, first compound 0.003 µM
  viability, T/C: 16.7%
Second compound 0.03 µM, first compound 0.00949 µM
  viability, T/C: 11.7%
Second compound 0.03 µM, first compound 0.03 µM
  viability, T/C: 10.4%
Second compound 0.03 µM, first compound 0.0949 µM
  viability, T/C: 6.53%
Second compound 0.03 µM, first compound 0.3 µM
  viability, T/C: 1.73%
Second compound 0.0949 µM, first compound 0.000949 µM
  viability, T/C: 15.5%
Second compound 0.0949 µM, first compound 0.003 µM
  viability, T/C: 16.3%
Second compound 0.0949 µM, first compound 0.00949 µM
  viability, T/C: 11.7%
Second compound 0.0949 µM, first compound 0.03 µM
  viability, T/C: 10.5%
Second compound 0.0949 µM, first compound 0.0949 µM
  viability, T/C: 7.5%
Second compound 0.0949 µM, first compound 0.3 µM
  viability, T/C: 0.75%
Second compound 0.3 µM, first compound 0.000949 µM
  viability, T/C: 14.3%
Second compound 0.3 µM, first compound 0.003 µM
  viability, T/C: 13.6%
Second compound 0.3 µM, first compound 0.00949 µM
  viability, T/C: 10.7%
Second compound 0.3 µM, first compound 0.03 µM
  viability, T/C: 13.1%
Second compound 0.3 µM, first compound 0.0949 µM
  viability, T/C: 7.92%
Second compound 0.3 µM, first compound 0.3 µM
  viability, T/C: 1.5%

## Nc1ccn(C2OC(CO)C(O)C2(F)F)c(=O)n1 (stereo unspecified) + CCn1c(-c2cc(N3CCN(C)CC3)cnc2C(C)OC)c2c3cc(ccc31)-c1csc(n1)CC(NC(=O)C1CC1C)C(=O)N1CCCC(N1)C(=O)OCC(C)(C)C2
Second compound 0.000949 µM
  pIC50: 7.68
Second compound 0.003 µM
  pIC50: 7.90
Second compound 0.00949 µM
  pIC50: > 8.50
Second compound 0.03 µM
  pIC50: > 8.50
Second compound 0.0949 µM
  pIC50: > 8.50
Second compound 0.3 µM
  pIC50: > 8.50
Second compound 0.000949 µM, first compound 0.00316 µM
  viability, T/C: 74%
Second compound 0.000949 µM, first compound 0.01 µM
  viability, T/C: 53.4%
[1]
  viability, T/C: 48.6%
[2]
  viability, T/C: 35.9%
[3]
  viability, T/C: 28.4%
[4]
  viability, T/C: 23.6%
Second compound 0.003 µM, first compound 0.00316 µM
  viability, T/C: 60.9%
Second compound 0.003 µM, first compound 0.01 µM
  viability, T/C: 51.7%
[5]
  viability, T/C: 40%
[6]
  viability, T/C: 25%
[7]
  viability, T/C: 25.5%
[8]
  viability, T/C: 23.7%
Second compound 0.00949 µM, first compound 0.00316 µM
  viability, T/C: 30.8%
Second compound 0.00949 µM, first compound 0.01 µM
  viability, T/C: 33.3%
[9]
  viability, T/C: 23.1%
[10]
  viability, T/C: 23%
[11]
  viability, T/C: 17.1%
[12]
  viability, T/C: 18%
Second compound 0.03 µM, first compound 0.00316 µM
  viability, T/C: 20.1%
Second compound 0.03 µM, first compound 0.01 µM
  viability, T/C: 21.2%
[13]
  viability, T/C: 15.7%
[14]
  viability, T/C: 13.3%
[15]
  viability, T/C: 13.7%
[16]
  viability, T/C: 14.1%
Second compound 0.0949 µM, first compound 0.00316 µM
  viability, T/C: 15.7%
Second compound 0.0949 µM, first compound 0.01 µM
  viability, T/C: 15.9%
[17]
  viability, T/C: 13.3%
[18]
  viability, T/C: 11.6%
[19]
  viability, T/C: 13.2%
[20]
  viability, T/C: 10.7%
Second compound 0.3 µM, first compound 0.00316 µM
  viability, T/C: 15.7%
Second compound 0.3 µM, first compound 0.01 µM
  viability, T/C: 16.1%
[21]
  viability, T/C: 16.1%
[22]
  viability, T/C: 13.2%
[23]
  viability, T/C: 12.6%
[24]
  viability, T/C: 10.2%
